Experiment [1] addresses T1, recombinant human ALK5 (TGF-βR1) protein (Homo sapiens, UniProt P36897).
T1 construct: purchased Life Technologies PR9075A
T1 sequence (P36897 34-503): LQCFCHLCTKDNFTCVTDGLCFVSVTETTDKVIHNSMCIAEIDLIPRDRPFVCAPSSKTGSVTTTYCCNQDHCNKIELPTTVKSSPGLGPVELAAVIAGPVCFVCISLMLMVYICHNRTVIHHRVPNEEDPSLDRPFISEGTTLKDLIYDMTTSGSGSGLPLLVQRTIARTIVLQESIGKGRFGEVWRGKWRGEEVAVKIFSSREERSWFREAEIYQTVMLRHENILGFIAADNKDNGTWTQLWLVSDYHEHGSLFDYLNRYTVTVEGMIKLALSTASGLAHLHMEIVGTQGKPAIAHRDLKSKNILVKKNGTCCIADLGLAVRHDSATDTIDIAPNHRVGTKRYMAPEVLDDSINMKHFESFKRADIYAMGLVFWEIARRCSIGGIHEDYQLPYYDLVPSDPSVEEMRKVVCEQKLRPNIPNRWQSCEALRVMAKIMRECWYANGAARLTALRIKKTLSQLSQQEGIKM
The experiment is described as follows: Biochemical ALK5 (TGF-βR1) assay to measure pKi (LANCE Ultra ULight kinase assay). The following applies: apparent pKi from pIC50 by Cheng-Prusoff, read-out: ALK5 pKi (converted). Summed up: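 After a 60 min room-temperature preincubation of ALK5 with compound, phosphorylation proceeds 60 min at 37 °C on ATP addition (125 μM as 5× stock). Detection: Eu-labelled phospho-Thr1342 Topo IIα antibody in EDTA buffer, pH 7.0; emission 665 nm.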

The test system of experiment [2] is TGF-β-stimulated SMAD3 phosphorylation in BEAS-2B cells. Description: Cellular ALK5 potency assay, inhibition of TGF-β stimulated pSMAD3 formation in BEAS-2B cells. Format: cell-based. The following applies: Homo sapiens; inhibition of TGF-β stimulated pSMAD3 formation, BEAS-2B cells; read-out: BEAS2B pIC50 (converted). Summed up:
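SMAD3 phosphorylation was measured by AlphaLISA after 30 min TGF-β stimulation (10 ng/mL final) of BEAS-2B cells preincubated 1 h with compound at 37 °C. Results given as pIC50.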

Where only a bound is given, the exact number is not on record here.

With `Cc1cccc(-c2n[nH]cc2-c2ccc3ncc(-c4ncco4)cc3n2)n1` [Compound 72, 2-[6-[3-(6-methyl-2-pyridyl)-1H-pyrazol-4-yl]-1,5-naphthyridin-3-yl]oxazole], in experiment [1], the Ki was 0.0398 to 0.316 nM. Also, the IC50 in experiment [2] is 25.1 to 158 nM.
For `Cc1cccc(-c2n[nH]cc2-c2ccc3ncc(N4CCCN(C5CCNCC5)CC4)cc3n2)n1` [Compound 638, 2-[3-(6-methyl-2-pyridyl)-1H-pyrazol-4-yl]-7-[4-(4-piperidyl)-1,4-diazepan-1-yl]-1,5-naphthyridine], in that order: 0.0398 to 0.316 nM and 1580 to 10000 nM.
For `Cc1cccc(-c2[nH]cnc2-c2ccc3ncc(-c4nccc(C(=O)O[C@H]5CCNC5)n4)cc3c2)n1` [Compound 1073, [(3S)-pyrrolidin-3-yl] 2-[6-[5-(6-methyl-2-pyridyl)-1H-imidazol-4-yl]-3-quinolyl]pyrimidine-4-carboxylate], in that order: 0.398 to 3.16 nM and 1580 to 10000 nM.
With `Cc1cccc(-c2n[nH]cc2-c2ccc3ncc(N4CCC(N(C)C)CC4)cc3n2)n1` [Compound 141, N,N-dimethyl-1-[6-[3-(6-methyl-2-pyridyl)-1H-pyrazol-4-yl]-1,5-naphthyridin-3-yl]piperidin-4-amine], the Ki in experiment [1] is below 0.0316 nM. Besides, the IC50 in experiment [2] is 25.1 to 158 nM.
For `COc1[nH]nc(-c2cccc(C)n2)c1-c1ccc2ncc(NCCN3CCN(C(C)C)CC3)cc2n1` [Compound 394, N-[2-(4-isopropylpiperazin-1-yl)ethyl]-6-[5-methoxy-3-(6-methyl-2-pyridyl)-1H-pyrazol-4-yl]-1,5-naphthyridin-3-amine], in that order: 0.0398 to 0.316 nM and 200 to 1260 nM.
For `Cc1cccc(-c2n[nH]cc2-c2ccc3ncc(OCC(=O)N4CCOCC4)cc3n2)n1` [Compound 486, 2-[[6-[3-(6-methyl-2-pyridyl)-1H-pyrazol-4-yl]-1,5-naphthyridin-3-yl]oxy]-1-morpholino-ethanone], in that order: 3.98 to 31.6 nM and 1580 to 10000 nM.
Take `Cc1cccc(-c2n[nH]cc2-c2ccc3ncc(-c4ccc5c(n4)CCNC5)cc3n2)n1` [Compound 678, 2-[3-(6-methyl-2-pyridyl)-1H-pyrazol-4-yl]-7-(5,6,7,8-tetrahydro-1,6-naphthyridin-2-yl)-1,5-naphthyridine]: the Ki in experiment [1] was below 0.0316 nM. Besides, in experiment [2], the IC50 is 25.1 to 158 nM.
Regarding `Cc1cccc(-c2nc3ccccn3c2-c2ccc3ncc(N4CCC(N(C)C)C4)cc3c2)n1` (centres unmarked) [Compound 272, N,N-dimethyl-1-[6-[2-(6-methyl-2-pyridyl)imidazo[1,2-a]pyridin-3-yl]-3-quinolyl]pyrrolidin-3-amine], the Ki in experiment [1] was below 0.0316 nM. Moreover, the IC50 in experiment [2] was 25.1 to 158 nM.
For `Cc1cccc(-c2n[nH]cc2-c2ccc3ncc(N4CCNCC4)cc3c2)n1` [Compound 529, 6-[3-(6-methyl-2-pyridyl)-1H-pyrazol-4-yl]-3-piperazin-1-yl-quinoline], in that order: below 0.0316 nM and below 20 nM.
With `Cc1cccc(-c2[nH]ncc2-c2ccc3ncc(C(=O)N(C)C)cc3n2)n1` [Compound 85, N,N-dimethyl-6-[5-(6-methyl-2-pyridyl)-1H-pyrazol-4-yl]-1,5-naphthyridine-3-carboxamide], in experiment [1], the Ki was 3.98 to 31.6 nM. In addition, the IC50 in experiment [2] was 200 to 1260 nM.
For `Cc1cccc(-c2n[nH]cc2-c2ccc3ncc(-c4ccc(O)nc4)cc3n2)n1` [Compound 374, 5-[6-[3-(6-methyl-2-pyridyl)-1H-pyrazol-4-yl]-1,5-naphthyridin-3-yl]pyridin-2-ol], in that order: below 0.0316 nM and 25.1 to 158 nM.
For `Cc1cccc(-c2n[nH]cc2-c2ccc3ncc(N4CC(C)NC(C)C4)cc3n2)n1` (centres unmarked) [Compound 28, 7-(3,5-dimethylpiperazin-1-yl)-2-[3-(6-methyl-2-pyridyl)-1H-pyrazol-4-yl]-1,5-naphthyridine], in that order: below 0.0316 nM and 25.1 to 158 nM.
For `COC(=O)[C@H]1CN(c2cnc3ccc(-c4c[nH]nc4-c4cccc(C)n4)nc3c2)CCN1` [Compound 442, methyl (2R)-4-[6-[3-(6-methyl-2-pyridyl)-1H-pyrazol-4-yl]-1,5-naphthyridin-3-yl]piperazine-2-carboxylate], in that order: 0.0398 to 0.316 nM and 25.1 to 158 nM.
On to `Cc1cccc(-c2[nH]cnc2-c2ccc3ncc(-c4cccc(N5CCNCC5)n4)cc3c2)n1` [Compound 1100, 6-[5-(6-methyl-2-pyridyl)-1H-imidazol-4-yl]-3-(6-piperazin-1-yl-2-pyridyl)quinoline], for which the Ki in experiment [1] was 0.0398 to 0.316 nM. Besides, the IC50 in experiment [2] was below 20 nM.
For `Cc1cccc(-c2n[nH]cc2-c2ccc3ncc(Nc4ccc(N5CCNCC5)cn4)cc3c2)n1` [Compound 121, 6-[3-(6-methyl-2-pyridyl)-1H-pyrazol-4-yl]-N-(5-piperazin-1-yl-2-pyridyl)quinolin-3-amine], in that order: below 0.0316 nM and 25.1 to 158 nM.
For `Cc1cccc(-c2n[nH]cc2-c2ccc3ncc(-c4cn[nH]c4)cc3n2)n1` [Compound 233, 2-[3-(6-methyl-2-pyridyl)-1H-pyrazol-4-yl]-7-(1H-pyrazol-4-yl)-1,5-naphthyridine], in that order: below 0.0316 nM and below 20 nM.
For `Cc1cccc(-c2[nH]cnc2-c2ccc3ncc(C4=CCC(NCC5CCOC5=O)CC4)cc3c2)n1` (centres unmarked) [Compound 456, 3-[[[4-[6-[5-(6-methyl-2-pyridyl)-1H-imidazol-4-yl]-3-quinolyl]cyclohex-3-en-1-yl]amino]methyl]tetrahydrofuran-2-one], in that order: below 0.0316 nM and below 20 nM.
Take `Cc1cccc(-c2[nH]cnc2-c2ccc3ncc(N4CC(CN)C4)cc3c2)n1` [Compound 68, [1-[6-[5-(6-methyl-2-pyridyl)-1H-imidazol-4-yl]-3-quinolyl]azetidin-3-yl]methanamine]: the Ki in experiment [1] is 0.0398 to 0.316 nM. Also, in experiment [2], the IC50 is below 20 nM.
For `Cc1cccc(-c2n[nH]cc2-c2ccc3ncc(CCCN4CCOCC4)cc3n2)n1` [Compound 261, 4-[3-[6-[3-(6-methyl-2-pyridyl)-1H-pyrazol-4-yl]-1,5-naphthyridin-3-yl]propyl]morpholine], in that order: 0.0398 to 0.316 nM and 25.1 to 158 nM.
For `Cc1cccc(-c2n[nH]cc2-c2ccc3nccc(C4CO[C@H]5CNC[C@@H]5N4)c3n2)n1` (mixture of isomers) [Compound 861, rac-(4aS,7aS)-3-[6-[3-(6-methyl-2-pyridyl)-1H-pyrazol-4-yl]-1,5-naphthyridin-4-yl]-2,3,4,4a,5,6,7,7a-octahydropyrrolo[3,4-b][1,4]oxazine], in that order: 3.98 to 31.6 nM and 200 to 1260 nM.
For `Cc1cccc(-c2n[nH]cc2-c2ccc3ncc(N4CCCNCC4)cc3c2)n1` [Compound 580, 3-(1,4-diazepan-1-yl)-6-[3-(6-methyl-2-pyridyl)-1H-pyrazol-4-yl]quinoline], in that order: 0.0398 to 0.316 nM and 25.1 to 158 nM.
Regarding `Cc1cccc(-c2[nH]cnc2-c2ccc3ncc(-c4ncc(C(=O)O[C@H]5CCNC5)cn4)cc3c2)n1` [Compound 1158, [(3S)-pyrrolidin-3-yl] 2-[6-[5-(6-methyl-2-pyridyl)-1H-imidazol-4-yl]-3-quinolyl]pyrimidine-5-carboxylate], the Ki in experiment [1] was 0.0398 to 0.316 nM. Moreover, the IC50 in experiment [2] is 25.1 to 158 nM.

These data come from patent US11590116B2 (THERAVANCE BIOPHARMA R&D IP, LLC, priority 2019, dated 2023).
